Data as given in patent US20250346616A1 (DIZAL (JIANGSU) PHARMACEUTICAL CO., LTD., priority 2022, published 2025).

Legend:
Recombinant ROCK1 = Recombinant ROCK1 (Homo sapiens (Human), UniProt Q13464); assay: Lance Ultra Kinase Assay, ROCK1 inhibition; type: biochemical; conditions: ATP at Km, 30 min pre-incubation, 1 h reaction
Recombinant ROCK2 = Recombinant ROCK2 (Homo sapiens (Human), UniProt O75116); assay: Lance Ultra Kinase Assay, ROCK2 inhibition; type: biochemical; conditions: ATP at Km, 30 min pre-incubation, 1 h reaction
Sequence of Recombinant ROCK2 (O75116 whole entry): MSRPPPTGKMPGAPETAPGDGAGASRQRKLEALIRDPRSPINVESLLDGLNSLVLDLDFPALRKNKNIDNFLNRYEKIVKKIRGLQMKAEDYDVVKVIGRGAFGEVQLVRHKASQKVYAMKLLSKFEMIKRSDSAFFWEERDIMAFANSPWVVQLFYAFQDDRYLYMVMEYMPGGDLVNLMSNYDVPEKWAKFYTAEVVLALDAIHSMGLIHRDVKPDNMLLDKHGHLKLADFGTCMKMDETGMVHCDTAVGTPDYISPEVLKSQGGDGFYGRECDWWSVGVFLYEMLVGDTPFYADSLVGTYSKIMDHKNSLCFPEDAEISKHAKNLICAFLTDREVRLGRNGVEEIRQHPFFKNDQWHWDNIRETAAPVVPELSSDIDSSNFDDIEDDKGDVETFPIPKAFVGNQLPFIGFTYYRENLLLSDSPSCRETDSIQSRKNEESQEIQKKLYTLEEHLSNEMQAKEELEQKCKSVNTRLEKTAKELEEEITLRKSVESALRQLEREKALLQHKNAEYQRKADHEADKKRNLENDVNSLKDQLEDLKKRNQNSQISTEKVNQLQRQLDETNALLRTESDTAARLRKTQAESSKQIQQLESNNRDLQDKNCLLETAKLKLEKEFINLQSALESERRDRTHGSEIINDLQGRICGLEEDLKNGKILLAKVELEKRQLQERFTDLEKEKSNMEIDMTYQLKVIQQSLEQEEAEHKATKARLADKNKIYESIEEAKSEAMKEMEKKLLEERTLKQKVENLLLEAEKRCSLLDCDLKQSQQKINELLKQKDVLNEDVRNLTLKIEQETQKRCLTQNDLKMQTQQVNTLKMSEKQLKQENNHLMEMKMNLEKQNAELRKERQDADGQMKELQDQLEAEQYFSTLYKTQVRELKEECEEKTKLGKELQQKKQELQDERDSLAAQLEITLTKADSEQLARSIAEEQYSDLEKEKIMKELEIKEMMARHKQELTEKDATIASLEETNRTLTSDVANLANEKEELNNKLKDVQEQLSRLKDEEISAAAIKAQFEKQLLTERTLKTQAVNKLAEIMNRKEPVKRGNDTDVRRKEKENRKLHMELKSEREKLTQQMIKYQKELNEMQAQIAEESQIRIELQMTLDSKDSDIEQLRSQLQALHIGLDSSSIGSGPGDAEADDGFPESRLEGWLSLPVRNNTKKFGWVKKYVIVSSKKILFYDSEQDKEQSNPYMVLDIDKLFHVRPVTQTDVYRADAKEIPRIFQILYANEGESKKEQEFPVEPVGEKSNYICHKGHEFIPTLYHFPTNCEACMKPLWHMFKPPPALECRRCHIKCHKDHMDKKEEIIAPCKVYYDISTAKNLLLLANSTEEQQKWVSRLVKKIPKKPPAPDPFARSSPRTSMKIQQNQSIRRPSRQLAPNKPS
Protocol: The inhibition potency of compounds against these enzymes was assessed using Lance Ultra Kinase Assay. In brief, recombinant kinases were pre-incubated in the presence or absence of compound at room temperature for 30 minutes. The reaction was initiated by the addition of the ATP (Km) and substrate peptide which could be phosphorylated by kinases in the reaction. After 1 h incubation, the reaction was stopped by the addition of the detection reagent mix containing EDTA. The fluorescence was measured at 615 nm and 665 nm, respectively with excitation wavelength at 320 nm. The calculated signal ratio of 665 nm/615 nm is proportional to the kinase activity.

pMLC2 = assay: Cellular PD assay, pMLC2 in PASMC (western blot); type: cell-based; conditions: PASMC, 0.5 h; Human Pulmonary Artery Smooth Muscle Cells, 30 min incubation
Protocol: (§1) PASMC (Human Pulmonary Artery Smooth Muscle Cells) were grown in Smooth Muscle Cell Growth medium (Promocell #C-22162). The cells were resuspended at 3×10^5 cells per well in 6-well plate in Smooth Muscle Cell Growth medium (Promocell #C-22162) and incubated compound concentration range: (10000/1111/333/111/37/12.3/4.1/0.41/0 nM) for 30 min.
(§2) Cells were then placed on ice and washed with ice-cold PBS. Cell lysates were prepared with 2×SDS. Separate proteins by SDS-PAGE 2 hr, transfer of proteins form gel to membrane 90 min, Blocking the membrane with 5% milk 1 hr and incubation in primary antibody overnight at 4° C., Incubate the membrane in HRP-conjugated secondary antibody diluted in blocking buffer (1:2000) for 1 hour at room temperature. Detection using Amersham ECL plus western blotting detection system (LAS4000). The purified product was analysed by SDS PAGE and the amount of target protein calculated by gray scanning by Multi-Gauge V3.0 software.

pMYPT1 = assay: Cellular PD assay, pMYPT1 in PASMC (western blot); type: cell-based; conditions: PASMC, 0.5 h; Human Pulmonary Artery Smooth Muscle Cells, 30 min incubation
Protocol: as §1, §2

HepG2 cells = assay: Cell-based phospholipidosis assay (LipidTOX Red); conditions: Homo sapiens, 24 h, LipidTOX Red dye
Protocol: HepG2 cells were dispensed into Collagen I-coated 96-well black wall/clear bottom assay plates at 5000 cells/90 μL/well.
The assay plates were then incubated at 37° C. for 24 h, […] of 8% paraformaldehyde (4% final) fixative solution containing 8 μg/ml Hoechst 33342 (4 ug/mL final) in DPBS was added to each well. After incubation at room temperature for 25 min, the assay plates were washed with DPBS. The assay plates were sealed and stored at 4° C. before imaging.
The fluorescence intensities (595 nm excitation, 615 nm emission for LipidTOX Red; 352 nm excitation, 461 nm emission for Hoechst 33342) were measured using an High Content Screening System (Operetta, PerkinElmer) with a 10×Fluor objective. […] Average intensities were subjected to Prism and EC50 were calculated.

Sequence of Recombinant ROCK1 (Q13464 whole entry): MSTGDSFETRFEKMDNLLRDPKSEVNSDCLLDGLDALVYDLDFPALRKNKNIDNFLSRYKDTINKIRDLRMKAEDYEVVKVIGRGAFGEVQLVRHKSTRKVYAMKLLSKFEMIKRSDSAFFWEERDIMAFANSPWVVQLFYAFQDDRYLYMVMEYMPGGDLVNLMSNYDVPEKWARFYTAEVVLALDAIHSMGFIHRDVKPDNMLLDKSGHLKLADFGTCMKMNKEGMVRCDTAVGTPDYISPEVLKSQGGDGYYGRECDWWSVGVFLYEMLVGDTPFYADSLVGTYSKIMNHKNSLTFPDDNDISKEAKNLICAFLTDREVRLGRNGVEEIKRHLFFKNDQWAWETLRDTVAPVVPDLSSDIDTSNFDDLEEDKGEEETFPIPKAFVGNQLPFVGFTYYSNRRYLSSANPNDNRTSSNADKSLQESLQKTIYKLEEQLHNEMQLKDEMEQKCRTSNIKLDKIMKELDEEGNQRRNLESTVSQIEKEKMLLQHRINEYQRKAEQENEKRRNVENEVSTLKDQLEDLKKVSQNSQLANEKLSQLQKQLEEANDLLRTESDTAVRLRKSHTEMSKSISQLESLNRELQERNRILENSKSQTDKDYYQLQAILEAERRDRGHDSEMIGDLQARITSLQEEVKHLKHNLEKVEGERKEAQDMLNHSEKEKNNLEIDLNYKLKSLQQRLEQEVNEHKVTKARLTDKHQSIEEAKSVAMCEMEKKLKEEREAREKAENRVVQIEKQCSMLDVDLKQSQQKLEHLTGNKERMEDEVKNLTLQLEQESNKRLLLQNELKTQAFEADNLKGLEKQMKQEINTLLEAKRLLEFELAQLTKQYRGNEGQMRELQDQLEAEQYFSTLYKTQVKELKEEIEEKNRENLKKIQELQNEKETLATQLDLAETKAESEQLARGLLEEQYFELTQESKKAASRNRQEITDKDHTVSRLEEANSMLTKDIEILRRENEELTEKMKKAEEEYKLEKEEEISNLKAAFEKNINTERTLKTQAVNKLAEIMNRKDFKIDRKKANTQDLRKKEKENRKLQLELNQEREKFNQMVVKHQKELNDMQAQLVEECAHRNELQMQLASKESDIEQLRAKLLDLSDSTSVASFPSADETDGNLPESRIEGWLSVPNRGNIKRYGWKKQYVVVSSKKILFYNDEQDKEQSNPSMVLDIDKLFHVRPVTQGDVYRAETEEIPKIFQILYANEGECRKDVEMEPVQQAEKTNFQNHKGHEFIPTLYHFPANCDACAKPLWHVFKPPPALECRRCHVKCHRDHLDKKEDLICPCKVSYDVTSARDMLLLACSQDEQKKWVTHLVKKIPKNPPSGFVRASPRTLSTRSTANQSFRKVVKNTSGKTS

Compound	IC50 (Recombinant ROCK1)	IC50 (Recombinant ROCK2)	IC50 (pMLC2)	IC50 (pMYPT1)	EC50 (HepG2 cells)
NCC(C(=O)Nc1cccc2c(-c3cn[nH]c3)c[nH]c12)c1ccc(CO)cc1 (single isomer, unassigned) [Example 3, N-(3-(1H-pyrazol-4-yl)-1H-indol-7-yl)-3-amino-2-(4-(hydroxymethyl)phenyl)propanamide]	0.33 nM	0.17 nM	46 nM	99 nM	> 200 µM
CN1CCN(CC(C(=O)Nc2cccc3c(-c4cn[nH]c4)c[nH]c23)c2ccccc2)CC1 (single isomer, unassigned) [Example 38, N-(3-(1H-pyrazol-4-yl)-1H-indol-7-yl)-3-(4-methylpiperazin-1-yl)-2-phenylpropanamide]	0.44 nM	0.26 nM	8.2 nM	13 nM	6.23 µM
COc1cccc([C@@H](N)C(=O)Nc2cccc3c(-c4cn[nH]c4)c[nH]c23)c1 [Example 42, (2R)-2-amino-2-(3-methoxyphenyl)-N-[3-(1H-pyrazol-4-yl)-1H-indol-7-yl]acetamide]	0.18 nM	0.1 nM	3 nM	2.8 nM	> 200 µM
